From patent US10487068B2, “Pyridazine derivatives as RORc modulators” (Genentech, Inc., priority 2015, dated 2019)

Each compound was assayed against T1, RORc ligand binding domain (Homo sapiens, UniProt P51449) (assay: In Vitro RORc Ligand Binding Assay). Details: RORc IC50, radioligand 25-[3H]hydroxycholesterol 6 nM; 0.6 ug/mL RORc receptor; 3 h at 25° C.
T1 sequence (P51449 269-508 limits assumed): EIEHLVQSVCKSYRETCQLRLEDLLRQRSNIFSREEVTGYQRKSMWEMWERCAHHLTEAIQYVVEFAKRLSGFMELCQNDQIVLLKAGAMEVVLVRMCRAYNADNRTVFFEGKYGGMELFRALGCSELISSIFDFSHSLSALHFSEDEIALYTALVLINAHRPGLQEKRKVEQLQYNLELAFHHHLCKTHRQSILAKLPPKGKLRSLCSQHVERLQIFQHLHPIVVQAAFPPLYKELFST

Compared with `CC1(C)[C@H]2CC[C@]1(c1nccc(C(=O)NCCO)n1)c1nnc(-c3c(F)cccc3F)cc12` [Example 95, 2-((5R,8R)-3-(2,6-difluorophenyl)-9,9-dimethyl-5,6,7,8-tetrahydro-5,8-methanocinnolin-8-yl)-N-(2-hydroxyethyl)pyrimidine-4-carboxamide], `CC1(C)[C@@H]2CC[C@@]1(c1cccc(C(=O)NCCO)n1)c1nnc(-c3c(F)cccc3F)cc12` [Example 99, 6-((5S,8R)-3-(2,6-difluorophenyl)-9,9-dimethyl-5,6,7,8-tetrahydro-5,8-methanocinnolin-8-yl)-N-(2-hydroxyethyl)picolinamide] is 2.9-fold lower in IC50: 117 nM for the first, 40.9 nM for the second. The second is the more potent here.

Going from `CC1(C)[C@H]2CC[C@]1(c1cccc(C(=O)Nc3c[nH]c(=O)cn3)n1)c1nnc(-c3c(F)cccc3F)cc12` [Example 96, 6-((5R,8S)-3-(2,6-difluorophenyl)-9,9-dimethyl-5,6,7,8-tetrahydro-5,8-methanocinnolin-8-yl)-N-(5-oxo-4,5-dihydropyrazin-2-yl)picolinamide] to `CC(=O)Nc1cccc([C@@]23CC[C@@H](c4cc(-c5c(F)cccc5F)nnc42)C3(C)C)n1` [Example 101, N-(6-((5R,8S)-3-(2,6-difluorophenyl)-9,9-dimethyl-5,6,7,8-tetrahydro-5,8-methanocinnolin-8-yl)pyridin-2-yl)acetamide], the IC50 falls from 34.3 nM to 21.9 nM (1.6-fold).

First: CC1(C)[C@H]2CC[C@]1(c1nccc(NCCO)n1)c1nnc(-c3c(F)cccc3F)cc12 [Example 97, 2-((2-((5R,8R)-3-(2,6-difluorophenyl)-9,9-dimethyl-5,6,7,8-tetrahydro-5,8-methanocinnolin-8-yl)pyrimidin-4-yl)amino)ethanol]
Second: CC1(C)[C@H]2CC[C@]1(c1ccnc(NCCO)n1)c1nnc(-c3c(F)cccc3F)cc12 [Example 98]
The IC50 of the first is 6.4-fold higher: 98.3 nM for the first, 15.4 nM for the second.

Going from `C[C@H](O)CNC(=O)c1cccc([C@]23CC[C@H](c4cc(-c5c(F)cccc5F)nnc42)C3(C)C)n1` [Example 100, 6-((5S,8R)-3-(2,6-difluorophenyl)-9,9-dimethyl-5,6,7,8-tetrahydro-5,8-methanocinnolin-8-yl)-N-((S)-2-hydroxypropyl)picolinamide] to `C[C@@H](O)CNC(=O)c1cncc([C@]23CC[C@H](c4cc(-c5c(F)cccc5F)nnc42)C3(C)C)n1` [Example 109, 6-((5S,8R)-3-(2,6-difluorophenyl)-9,9-dimethyl-5,6,7,8-tetrahydro-5,8-methanocinnolin-8-yl)-N-((R)-2-hydroxypropyl)pyrazine-2-carboxamide], the IC50 falls from 41.3 nM to 19.8 nM (2.1-fold).

Compared with `Cc1nnc(-c2cccc([C@@]34CC[C@@H](c5cc(-c6c(F)cccc6F)nnc53)C4(C)C)n2)o1` [Example 102, 2-(6-((5R,8S)-3-(2,6-difluorophenyl)-9,9-dimethyl-5,6,7,8-tetrahydro-5,8-methanocinnolin-8-yl)pyridin-2-yl)-5-methyl-1,3,4-oxadiazole], `Cc1ncc(-c2cncc([C@@]34CC[C@@H](c5cc(-c6c(F)cccc6F)nnc53)C4(C)C)n2)o1` [Example 118, 5-(6-((5R,8S)-3-(2,6-difluorophenyl)-9,9-dimethyl-5,6,7,8-tetrahydro-5,8-methanocinnolin-8-yl)pyrazin-2-yl)-2-methyloxazole] is 1.7-fold lower in IC50: 21.6 nM for the first, 13 nM for the second.

`CC1(C)[C@H]2CC[C@]1(c1cncc(NC(=O)C3COC3)n1)c1nnc(-c3c(F)cccc3F)cc12` [Example 103, N-(6-((5R,8S)-3-(2,6-difluorophenyl)-9,9-dimethyl-5,6,7,8-tetrahydro-5,8-methanocinnolin-8-yl)pyrazin-2-yl)oxetane-3-carboxamide] and `CC1(C)[C@H]2CC[C@]1(c1cncc(C(=O)NCC3(O)COC3)n1)c1nnc(-c3c(F)cccc3F)cc12` [Example 106, 6-((5R,8S)-3-(2,6-difluorophenyl)-9,9-dimethyl-5,6,7,8-tetrahydro-5,8-methanocinnolin-8-yl)-N-((3-hydroxyoxetan-3-yl)methyl)pyrazine-2-carboxamide] are within 1.5-fold of each other in IC50: 29.1 nM for the first, 31.1 nM for the second.

`CC1(C)[C@H]2CC[C@]1(c1cncc(-c3nnc[nH]3)n1)c1nnc(-c3c(F)cccc3F)cc12` [Example 104] and `Cc1nnc(-c2cncc([C@@]34CC[C@@H](c5cc(-c6c(F)cccc6F)nnc53)C4(C)C)n2)[nH]1` [Example 105] are within 1.5-fold of each other in IC50: 25.9 nM for the first, 30.9 nM for the second.

`CC1(C)[C@H]2CC[C@]1(c1cncc(C(=O)NC[C@@H](O)CO)n1)c1nnc(-c3c(F)cccc3F)cc12` [Example 107, 6-((5R,8S)-3-(2,6-difluorophenyl)-9,9-dimethyl-5,6,7,8-tetrahydro-5,8-methanocinnolin-8-yl)-N-((R)-2,3-dihydroxypropyl)pyrazine-2-carboxamide] and `CC1(C)[C@H]2CC[C@]1(c1cncc(C(=O)NC[C@H](O)CO)n1)c1nnc(-c3c(F)cccc3F)cc12` [Example 108, 6-((5R,8S)-3-(2,6-difluorophenyl)-9,9-dimethyl-5,6,7,8-tetrahydro-5,8-methanocinnolin-8-yl)-N-((S)-2,3-dihydroxypropyl)pyrazine-2-carboxamide] are within 1.5-fold of each other in IC50: 69.5 nM for the first, 47.5 nM for the second.

`CC1(C)[C@H]2CC[C@]1(c1cncc(C(=O)NCCS(C)(=O)=O)n1)c1nnc(-c3c(F)cccc3F)cc12` [Example 110, 6-((5R,8S)-3-(2,6-difluorophenyl)-9.9-dimethyl-5,6,7,8-tetrahydro-5,8-methanocinnolin-8-yl)-N-(2-(methylsulfonyl)ethyl)pyrazine-2-carboxamide] and `CC1(C)[C@H]2CC[C@]1(c1cncc(C(=O)NC(CO)CO)n1)c1nnc(-c3c(F)cccc3F)cc12` [Example 119, 6-((5R,8S)-3-(2,6-difluorophenyl)-9,9-dimethyl-5,6,7,8-tetrahydro-5,8-methanocinnolin-8-yl)-N-(1,3-dihydroxypropan-2-yl)pyrazine-2-carboxamide] are within 1.5-fold of each other in IC50: 51.4 nM for the first, 58.9 nM for the second.

`CC1(C)[C@H]2CC[C@]1(c1ccnc(NS(C)(=O)=O)n1)c1nnc(-c3c(F)cccc3F)cc12` [Example 111] and `CC1(C)[C@H]2CC[C@]1(c1ccnc(C(N)=O)n1)c1nnc(-c3c(F)cccc3F)cc12` [Example 113] are within 1.5-fold of each other in IC50: 41.4 nM for the first, 27.6 nM for the second.

`CC1(C)[C@H]2CC[C@]1(c1cccc(NC(=O)CO)n1)c1nnc(-c3c(F)cccc3F)cc12` [Example 112, N-(6-((5R,8S)-3-(2,6-difluorophenyl)-9,9-dimethyl-5,6,7,8-tetrahydro-5,8-methanocinnolin-8-yl)pyridin-2-yl)-2-hydroxyacetamide] and `CC1(C)[C@H]2CC[C@]1(c1cccc(CNC(=O)CO)n1)c1nnc(-c3c(F)cccc3F)cc12` [Example 116, N-((6-((5R,8S)-3-(2,6-difluorophenyl)-9,9-dimethyl-5,6,7,8-tetrahydro-5,8-methanocinnolin-8-yl)pyridin-2-yl)methyl)-2-hydroxyacetamide] are within 1.5-fold of each other in IC50: 13.7 nM for the first, 15.2 nM for the second.

Compared with `C[C@H](O)CNC(=O)c1nccc([C@@]23CC[C@@H](c4cc(-c5c(F)cccc5F)nnc42)C3(C)C)n1` [Example 114], `C[C@@H](O)CNC(=O)c1nccc([C@@]23CC[C@@H](c4cc(-c5c(F)cccc5F)nnc42)C3(C)C)n1` [Example 115] is 1.6-fold higher in IC50: 38.8 nM for the first, 63.2 nM for the second. The first is the more potent here.

`Cc1coc(-c2cncc([C@@]34CC[C@@H](c5cc(-c6c(F)cccc6F)nnc53)C4(C)C)n2)n1` [Example 117, 2-(6-((5R,8S)-3-(2,6-difluorophenyl)-9,9-dimethyl-5,6,7,8-tetrahydro-5,8-methanocinnolin-8-yl)pyrazin-2-yl)-4-methyloxazole] was tested, and the IC50 was 7.6 nM.
